Measurements as given in publication PMC7984888, “Inhibitory Activity of Pyrroloisoxazolidine Derivatives against Chlamydia trachomatis” (BioMed Research International, 2021).
Where two headings read alike, the source gives them in different places.

Tests used:
[1] = system: C. trachomatis L2; experiment: Inclusion body immunofluorescence staining; type: cell-based, Chlamydia trachomatis; conditions: for Inclusions at the highest concentration: 32 μM, C. trachomatis L2, HeLa cells, 36 hpi; for Formation (number) and growth (size) of C. trachomatis L2 inclusions: HeLa cells, MOI 0.2, 36 hpi, compared with 0.5% DMSO
Protocol: Cell monolayers seeded onto coverslips in a 24-well plate were infected with C. trachomatis at a multiplicity of infection (MOI) of 0.2 inclusion-forming units (IFU) per cell. Unless noted, individual compound was added into culture medium at indicated concentrations simultaneously at the time of inoculation. 0.5% DMSO was used as negative control and 11.25 μM tetracycline (Sigma-Aldrich) as positive control. For C. trachomatis D, an additional centrifugation (900 × g at room temperature for 1 h) was applied to facilitate the infection. At 36 hours postinfection (hpi), infected cells were fixed by precooled methanol and then subjected to sequential staining processed with a primary antibody and a FITC-conjugated secondary antibody. Evans blue was used as cytoplasm counterstain. Images were shot by an Olympus IX51 fluorescence microscope. […] At the highest concentration of 32 μM, inclusions were few and tiny, analogous to the positive control tetracycline (final concentration, 11.25 μM). In addition, the reduction on the production of progeny EBs was consistent with that of the inclusion number and size (Figure 1(b)). The direct inhibitory effect was also analyzed for C. trachomatis D. Happened as expected, changes in inclusion size and number and the progeny production that response to both chemicals are highly similar to those observed for C. trachomatis L2, with slightly weaker effect (Figures 1(a) and 1(c)).  Figure 1 Inhibition effect of compounds 1 and 2 on C. trachomatis. HeLa cells were infected with C. trachomatis L2 or D at an MOI of 0.2 in the presence of 0.5% DMSO, 11.25 μM tetracycline, or various concentrations of individual compound. Cells were either fixed or lysed for determination of infectious progeny EBs at 36 hpi. (a) Representative immunofluorescence microscopy images (scale bar = 100 μm). Inclusions were stained with a polyclonal anti-MoPn antibody that cross-reacts with C. trachomatis L2 and D (green), and cells were counterstained with Evans blue (red). (b, c) The percent inhibition of production of infectious progeny EBs was calculated based on data in compound-treated samples relative to DMSO-treated control. Data are presented as mean ± SD of three independent assays.

[2] = system: Chlamydia trachomatis serovar D (strain UW-3/CX); experiment: Infectious progeny inhibition assay, C. trachomatis D; type: cell-based; conditions: generation of infectious progeny EBs in HeLa cells, MOI 0.2, 36 hpi, 1 to 32 μM, read-out: IC50 (μM) Mean (95% confidence interval) Ct D
Protocol: Chlamydia trachomatis serovars D (strain UW-3/CX) and L2 (strain 434/Bu) were purchased from ATCC. HeLa cells purchased from ATCC were routinely cultured in DMEM supplemented with 10% heat-inactivated FBS (Sigma-Aldrich) and 10 μg/mL gentamicin at 37°C in a humidified atmosphere of 5% and were used for chlamydial propagation and cell culture experiments. EBs were purified by Renografin density gradient and stored in sucrose-phosphate-glutamate (SPG) buffer at -80°C [20]. A mouse polyclonal anti-MoPn (C. muridarum strain Nigg II) antibody, which was produced in our laboratory and cross-reacting with C. trachomatis D and L2, was used as a primary antibody for both stains detection.
Cell monolayers seeded onto coverslips in a 24-well plate were infected with C. trachomatis at a multiplicity of infection (MOI) of 0.2 inclusion-forming units (IFU) per cell. Unless noted, individual compound was added into culture medium at indicated concentrations simultaneously at the time of inoculation. 0.5% DMSO was used as negative control and 11.25 μM tetracycline (Sigma-Aldrich) as positive control. For C. trachomatis D, an additional centrifugation (900 × g at room temperature for 1 h) was applied to facilitate the infection. At 36 hours postinfection (hpi), infected cells were fixed by precooled methanol and then subjected to sequential staining processed with a primary antibody and a FITC-conjugated secondary antibody. Evans blue was used as cytoplasm counterstain. Images were shot by an Olympus IX51 fluorescence microscope.
Cells monolayers seeded in 48-well plate were infected and treated with chemicals as above. After incubation for 36 hours, infected cells were washed twice, scraped off, and lysed by sonication to release the infectious progeny EBs. Then the lysates were used to reinfect fresh cell monolayers grown in 96-well plate following 1 : 10 serial dilution. The inclusion counts were obtained by immunofluorescence staining as above to calculate the number of infectious progeny EBs in each sample. Percent inhibition was calculated based on EB counts in compound-treated samples relative to DMSO-treated negative control.
Data from the three independent experiments were presented as mean ± standard deviations (SD) and were subjected to pairwise Student's t-tests. p < 0.05 and p < 0.01 are considered statistically significant and statistically highly significant, respectively. The IC50 values, defined as the concentration of compound at which the generation of infectious progeny EBs was reduced by 50% relative to negative control, were calculated by nonlinear regression from percent inhibition data using the GraphPad Prism 5 software, and presented as mean (95% confidence interval).

[3] = system: C. trachomatis L2; experiment: Later treatment assay; type: cell-based, Chlamydia trachomatis; conditions: 2, 8 or 32 μM, progeny EBs at 36 hpi, compared with 0 hpi sample
Protocol: HeLa cells seeded in 48-well plate were infected with C. trachomatis L2 at an MOI of 0.2 and were treated with 2, 8, or 32 μM of compound at 0, 2, 12, and 24 hpi. At 36 hpi, cells were collected, and the production of infectious progeny EBs was determined as described above. Percent inhibition was calculated based on progeny EB count in compound-treated samples relative to DMSO-treated negative control.  Figure 5 Later treatment assay. (a) HeLa cells infected with C. trachomatis L2 were treated with 2, 8, or 32 μM individual compound at 0, 2, 12, or 24 hpi. The production of progeny EBs was determined at 36 hpi. (b–d) Percent inhibition of progeny EBs was calculated based on data in compound-treated samples relative to DMSO-treated control. Data are presented as mean ± SD of three independent assays. ∗∗p < 0.01, compared with each 0 hpi positive control sample by Student's t-tests.

[4] = system: C. trachomatis L2; experiment: Withdrawal assay; type: cell-based, Chlamydia trachomatis; conditions: progeny EBs at 36 hpi, compared with 36 hpi sample
Protocol: HeLa cells seeded in 48-well plate were infected with C. trachomatis L2 at an MOI of 0.2 and simultaneously treated with 2, 8, or 32 μM of compound. At 2, 12, 24, and 36 hpi, infected cells were washed twice to remove residual inhibitor, and fresh medium was added. At 36 hpi, the production of infectious progeny EBs and percent inhibition data were determined as above.  Figure 6 Withdrawal assay. (a) HeLa cells infected with C. trachomatis L2 were simultaneously treated with 2, 8, or 32 μM individual compound. The compound was removed at 2, 12, 24, or 36 hpi, and the production of progeny EBs was determined at 36 hpi. (b–d) Percent inhibition of progeny EBs was calculated based on data in compound-treated samples relative to DMSO-treated control. Data are presented as mean ± SD of three independent assays. ∗p < 0.05, ∗∗p < 0.01, compared with each 36 hpi positive control sample by Student's t-tests.

| SMILES | Inclusions at the highest concentration [1] | Formation (number) and growth (size) of C. trachomatis L2 inclusions [1] | IC50 ([2]; Chlamydia trachomatis, HeLa) [µM] | IC50 [2] [µM] | Antichlamydial activity when chemical was added at 24 hpi [3] | Antichlamydial activity when chemical was added before 12 hpi [3] | Inhibitory effect when chemical was removed after 24 hpi [4] | Inhibitory effect when chemical was removed before 12 hpi [4] |
| --- | --- | --- | --- | --- | --- | --- | --- | --- |
| c1ccc(C2C3CC(c4ccccc4)N(c4ccccc4)C3ON2c2ccccc2)cc1 (stereo not shown) [Compound 1] | few and tiny | inhibited the formation (number) and growth (size) | < 10 | 9.31 | dramatically dropped | maintained | relatively well preserved | significantly reduced |
| Clc1ccc(N2C(c3ccccc3)CC3C(c4ccccc4)N(c4ccccc4)OC32)cc1 (stereo not shown) [Compound 2] | few and tiny | inhibited the formation (number) and growth (size) | < 10 | 9.73 | dramatically dropped | maintained | relatively well preserved | significantly reduced |
